According to ChEMBL document CHEMBL3881528, “Macrocyclic Quinoxaline Compounds as HCV NS3 Protease Inhibitors” (2010):

Key:
[1] = tested on: Plasma; test: Covalent protein binding in rat plasma at 25 to 75 […], po using radio-labeled compound measured at 6 hrs by scintillation counting method; format: ADME, organism-based
[2] = Drug level in rat liver at 25 mg/kg, po measured at 24 hrs by RP-HPLC method; format: ADME, organism-based; details: read-out: Drug uptake
[3] = tested on: Liver; test: Covalent protein binding in rat liver at 25 to 75 […], po using radio-labeled compound measured at 6 hrs by scintillation counting method; format: ADME, organism-based; details: in vivo
[4] = Drug level in dog liver at 5 mg/kg, po measured at 24 hrs by RP-HPLC method; format: ADME, organism-based, Canis lupus familiaris; details: read-out: Drug uptake

C=C[C@@H]1C[C@]1(NC(=O)[C@@H]1C[C@@H]2CN1C(=O)[C@H](C(C)(C)C)NC(=O)O[C@@H]1C[C@H]1CCCCCc1nc3ccc(OC)cc3nc1O2)C(=O)[N-]S(=O)(=O)C1CC1.[K+]
PB [1]: 3 pmolequiv/mg | concentration at 24 h [2]: 27.9 µM | PB [3]: 3 pmolequiv/mg | concentration at 24 h [4]: 120 µM

C=C[C@@H]1C[C@]1(NC(=O)[C@@H]1C[C@@H]2CN1C(=O)[C@H](C(C)(C)C)NC(=O)O[C@@H]1CCC[C@H]1CCCCCc1nc3ccc(OC)cc3cc1O2)C(=O)NS(=O)(=O)C1CC1
PB [1]: 6 pmolequiv/mg | PB [3]: 24 pmolequiv/mg

C=C[C@@H]1C[C@]1(NC(=O)[C@@H]1C[C@@H]2CN1C(=O)[C@H](C(C)(C)C)NC(=O)O[C@@H]1C[C@H]1CCCCCc1nc3ccc(OC)cc3cc1O2)C(=O)[N-]S(=O)(=O)C1CC1.[K+]
concentration at 24 h [2]: 8.5 µM | concentration at 24 h [4]: 3.3 µM

C=C[C@@H]1C[C@]1(NC(=O)[C@@H]1C[C@@H]2CN1C(=O)[C@H](C1CCCC1)NC(=O)O[C@@H]1CCC[C@H]1CCCCCc1nc3ccccc3cc1O2)C(=O)NS(=O)(=O)C1CC1
PB [1]: 6 pmolequiv/mg | PB [3]: 63 pmolequiv/mg

C=C[C@@H]1C[C@]1(NC(=O)[C@@H]1C[C@@H]2CN1C(=O)[C@H](C1CCCC1)NC(=O)O[C@@H]1CCC[C@H]1CCCCCc1nc3ccccc3nc1O2)C(=O)NS(=O)(=O)C1CC1
PB [1]: 15 pmolequiv/mg | PB [3]: 38 pmolequiv/mg
